Experimental data: article PMC11714206, “Massively Parallel Screening of Toll/Interleukin‐1 Receptor (TIR)‐Derived Peptides Reveals Multiple Toll‐Like Receptors (TLRs)‐Targeting Immunomodulatory Peptides” (Advanced Science, 2024)
Blank lines part the entries; values can stand above or below the sequence they belong to.

Target: T1, MyD88^TIR (Homo sapiens, UniProt Q99836)
T1 construct: MyD88 (residues 148–296); 6xHis; made in house; host or cells: E. coli BL21 (DE3)
Experiment: T‐Surf phage library (P8 and P3) selection against MyD88^TIR, four rounds, NGS read counts
Assay type: binding
Conditions: for P8_MyD88 Rank (after) / P8_MyD88 Rank (before): P8 library; for P3_MyD88 Rank (after) / P3_MyD88 Rank (before): P3 library
Procedure: T‐Surf libraries were screened against the immobilized TIR domains of two major human TLR adaptor proteins, MAL^TIR and MyD88^TIR, allowing cross‐species selection of TIR‐binding motifs with 190 946 TIR‐derived peptides in a single binding assay (Scheme 1). Enriched phage pools from the fourth round of selection were analyzed using NGS after barcoding the peptide‐coding regions of the phage pools.
Phage display screening was performed by coating two wells of a 96‐well plate (Maxisorp, Thermo Fisher Scientific) with 100 µL of 5 µg mL^−1 TIR domains overnight; then, the coated wells were blocked with 200 µL of blocking buffer (0.2% BSA in PBS) and set aside for 1 h at 4 °C with gentle shaking. Next, 100 µL of the phage library was added to the wells and incubated for 1 h at room temperature (RT; 20 – 22 °C) with gentle shaking. The plate was washed four times with PBS containing 0.5% Tween‐20; the bound phages were eluted by adding 100 µL of 100 mM HCl to each well. The elute was neutralized with 10 µL of 1.0 M Tris‐HCl (pH 11.0). E. coli TG1 cells were grown to the log phase (A600 = ≈0.6), and 1 mL of the culture was incubated with 100 µL of the eluted phages for 30 min at 37 °C, with shaking at 200 rpm. Next, 1 µL of M13KO7 helper phages was added, followed by incubation for 45 min at 37 °C, with shaking. Subsequently, the cells were transferred to 25 mL of 2× yeast extract tryptone/carbenicillin/kanamycin medium and incubated overnight at 37 °C with shaking at 200 rpm. The amplified phages were precipitated with 20% PEG‐8000/2.5 M NaCl to be used for the next round of selection.
The naïve T‐Surf libraries in P8 and P3 and the enriched phage pools after four rounds were barcoded for NGS as previously described.^[ [59] ^] Briefly, 5 µL of the phage pool was used as a template for 20 cycles of a 50 µL PCR reaction using […] each of forward and reverse barcoded primers and PrimeSTAR Max DNA Polymerase. The PCR products were purified using Expin Gel SV (GeneAll). The NGS samples were quantified using qPCR, following the qPCR Quantification Protocol Guide (KAPA Library Quantification kits for Illumina Sequencing Platform), and qualified using the TapeStation High Sensitivity D1000 ScreenTape (Agilent Technologies). The indexed libraries were further sequenced by Macrogen (Seoul, Republic of Korea) using the NovaSeq platform (Illumina) with 100 bp paired‐end reads. The reads were demultiplexed by barcodes and filtered for an average Phred quality score of at least 30, followed by trimming the flanking consensus sequences using Cutadapt (version 2.3). Peptide sequence populations were analyzed according to the read counts.

[1] = 4R selection against MyD88, rank after grouping
[2] = 4R selection against MyD88, rank before grouping
[3] = selection against MyD88, rank by count after grouping
[4] = selection against MyD88, rank by count before grouping
[5] = P3_MyD88: rank by count after grouping
[6] = P3_MyD88: rank by count before grouping
[7] = selection against MyD88, rank after grouping
[8] = selection against MyD88, rank before grouping
[9] = selection against MyD88 TIR, rank by count after grouping
[10] = selection against MyD88 TIR, rank by count before grouping
[11] = P8_MyD88: rank by NGS read count after grouping
[12] = P8_MyD88: rank by NGS read count before grouping
[13] = P8_MyD88: rank by count after grouping
[14] = P8_MyD88: rank by count before grouping

T1 sequence (Q99836 148-296): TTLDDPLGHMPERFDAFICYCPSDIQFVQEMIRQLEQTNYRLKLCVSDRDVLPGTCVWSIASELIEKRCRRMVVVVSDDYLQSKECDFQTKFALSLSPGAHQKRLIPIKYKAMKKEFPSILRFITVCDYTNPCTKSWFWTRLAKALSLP

Sequence: LGFNWMDWEYFVGIEG
- P8_MyD88 Rank (after) [1]: 671
- P8_MyD88 Rank (before) [2]: 3216

Sequence: WALDVLLQFLHARELF
- P8_MyD88 Rank (after) [3]: 723
- P8_MyD88 Rank (before) [4]: 1412

Sequence: EWIREHLRLALKERLP
- Rank (after) [5]: 446
- Rank (before) [6]: 2130

Sequence: SEKYAKSPWAKVGLVL
- P3_MyD88 Rank (after) [7]: 548
- P3_MyD88 Rank (before) [8]: 3001

Sequence: WDFASNMEQFWDRLLYA
- P8_MyD88 Rank (after) [3]: 711
- P8_MyD88 Rank (before) [4]: 1610

Sequence: WEDVRINFLSHFLKEL
- P8_MyD88 Rank (after) [9]: 253
- P8_MyD88 Rank (before) [10]: 434

Sequence: LGYRWGDWEYFVGIEE
- Rank (after) [11]: 1017
- Rank (before) [12]: 3222

Sequence: WDFASNMNSFGIVCI
- Rank (after) [11]: 974
- Rank (before) [12]: 1628

Sequence: YAFTGHLHRDLVQRGL
- Rank (after) [5]: 427
- Rank (before) [6]: 1521

Sequence: DWVWEYLLPNVERPEG
- Rank (after) [11]: 880
- Rank (before) [12]: 2458

Sequence: SELREVADGSVSPLEM
- P3_MyD88 Rank (after) [9]: 192
- P3_MyD88 Rank (before) [10]: 3063

Sequence: DPQELEWFYERLLSQM
- P8_MyD88 Rank (after) [1]: 620
- P8_MyD88 Rank (before) [2]: 2993

Sequence: DPQDREWCYERLVSLL
- P8_MyD88 Rank (after) [7]: 516
- P8_MyD88 Rank (before) [8]: 2958

Sequence: DPQDLECVYERLVSLF
- Rank (after) [11]: 1006
- Rank (before) [12]: 2846

Sequence: LGYHWIEWEDFVVIED
- Rank (after) [11]: 872
- Rank (before) [12]: 3293

Sequence: FDASTWWLRELLQIA
- Rank (after) [13]: 413
- Rank (before) [14]: 814

Sequence: TSHFLDSYWAMFELNM
- Rank (after) [13]: 140
- Rank (before) [14]: 152
- Population (P8_MyD88 pool: P8 T-Surf phage library, 4th round of selection against MyD88 TIR, share of NGS reads): 0.01%

Sequence: YELDFSHFCCLMARR
- Rank (after) [11]: 929
- Rank (before) [12]: 1947

Sequence: EWIREQLHPALNERLP
- P3_MyD88 Rank (after) [3]: 742
- P3_MyD88 Rank (before) [4]: 2176

Sequence: SSFRKGVWRVRKLSKK
- P3_MyD88 Rank (after) [3]: 717
- P3_MyD88 Rank (before) [4]: 3230

Sequence: YAASPWWFYERVEILG
- P8_MyD88 Rank (after) [1]: 612
- P8_MyD88 Rank (before) [2]: 1716

Sequence: DYANSSWALDELWLIL
- P8_MyD88 Rank (after) [7]: 510
- P8_MyD88 Rank (before) [8]: 2544

Sequence: HLLREFDKKLITAFQD
- P3_MyD88 Rank (after) [1]: 594
- P3_MyD88 Rank (before) [2]: 2769

Sequence: GLSWGPYEWCRGLYDA
- P8_MyD88 Rank (after) [3]: 770
- P8_MyD88 Rank (before) [4]: 2294

Sequence: YTALPNSGFHTFRDNN
- P3_MyD88 Rank (after) [9]: 257
- P3_MyD88 Rank (before) [10]: 1636

Sequence: DPQDLDGCYERLVSLF
- Rank (after) [13]: 393
- Rank (before) [14]: 2837

More lines, now with the values ahead:

- P8_MyD88 Rank (after) [7]: 566
- P8_MyD88 Rank (before) [8]: 3461
Sequence: PQDLEWFYERLVTHVLLRHL

- P3_MyD88 Rank (after) [7]: 520
- P3_MyD88 Rank (before) [8]: 2142
Sequence: EWIREQLRPALKNVC

- Rank (after) [11]: 965
- Rank (before) [12]: 2249
Sequence: VQWDELLQILHARELF

- P3_MyD88 Rank (after) [3]: 738
- P3_MyD88 Rank (before) [4]: 2882
Sequence: QQVVRYRLEIVRVTKL

- Rank (after) [13]: 418
- Rank (before) [14]: 1762
Sequence: YAASPWWFDELVKTVR

- P3_MyD88 Rank (after) [3]: 706
- P3_MyD88 Rank (before) [4]: 2609
Sequence: RISAFHQQLLMALKTQ

- P3_MyD88 Rank (after) [7]: 566
- P3_MyD88 Rank (before) [8]: 2705
Sequence: PEKANGGENAFFNNIV

- P8_MyD88 Rank (after) [9]: 223
- P8_MyD88 Rank (before) [10]: 2678
Sequence: DPQGLGWFYERLVSLF

- Rank (after) [13]: 147
- Rank (before) [14]: 208
Sequence: YASSTWWLRELLQIA

- Rank (after) [13]: 173
- Rank (before) [14]: 198
Sequence: EDTLIRLLVQRIMKEL

- P8_MyD88 Rank (after) [9]: 248
- P8_MyD88 Rank (before) [10]: 439
Sequence: YASYDDFWDRLIRMIE

- P8_MyD88 Rank (after) [1]: 645
- P8_MyD88 Rank (before) [2]: 3104
Sequence: DSLFWDRLLPNLEGPAG

- Rank (after) [11]: 939
- Rank (before) [12]: 3878
Sequence: NPADLDWFYERLVSLF

- Rank (after) [13]: 184
- Rank (before) [14]: 236
Sequence: LADALERYGIMFIIDK
